Columns and labels:
HIV-1 (Ba-L) = test: inhibition of HIV proliferation in monocytes (p24 antigen ELISA); type: cell-based; conditions: HIV-infected human monocytes; compared with ddCTP liposomes
[1] = capture / encapsulation volume of ddCTP liposomes; type: physicochemical
Description: The amount of lipid in the preparation was determined from ¹⁴C counts (¹⁴C-cholesteryl oleate) in a standard beta counting scintillation fluid. The amount of ddCTP was assessed from the optical density at 280 nm. Samples for optical density reading were prepared by adding 0.9 ml of 65:25 chloroform ethanol solution to 0.5 ml of the sample. This eliminated light scatter that would otherwise have resulted from the presence of lipid particles. Negative staining electron microscopy was performed using glow-discharged formvar-carbon coated grids and sodium phosphotungstate. Release of ddCTP from liposomes was assessed by dialysis of samples against phosphate buffered saline. The integrity of ddCTP was assessed by high-performance gradient-elution anion exchange chromatography.
The amounts of lipid and ddCTP in the preparation were calculated from ¹⁴C and ³H counts, respectively. Encapsulation was generally in the range of 1.5 - 2 microliters/micromole EPC. The size distribution of liposomes was determined by quasi-elastic light-scattering (QELS) using an N4MD multiple-angle submicron particle size analyzer (Coulter, Hialeah, Fla., USA). […] The profile is substantially similar to that of a fresh preparation. The weight average diameter was about 215 nm with the coefficient of variation being about 100 nm.

monocytes = test: superoxide generation by monocytes; type: cell-based, Human
Description: Human peripheral blood mononuclear cells were obtained by standard procedures employing continuous flow cell separation (leukapheresis), such as described in Wahl, et al., Cellular Immunol. 85:373-383 (1984). The preparation was diluted in phosphate-buffered saline and layered onto gradients of Ficoll-Paque (Pharmacia-PL Biochemicals, Piscataway, N.J., USA). After centrifugation, mononuclear cells were pipetted from the interface, washed, and suspended in DMEM-GG-FCS. They were then fractionated by countercurrent centrifugal elutriation. The procedure comprises the Beckman elutriation system including a J-21 Beckman Centrifuge, a JE-6 elutriator rotor, a stroboscope, and a Masterflex pump and pumphead. The cells were loaded into the rotor and fractionated by elution at increasing flow rates. Fractions 7 and 8, highly enriched for monocytes, were pooled for use.

For Nc1ccn([C@H]2CC[C@@H](COP(=O)(O)OP(=O)(O)OP(=O)(O)O)O2)c(=O)n1 [ddCTP, 2ʹ,3ʹ-dideoxycytidine-5ʹ-triphosphate], the “activity against p24 expression” value (HIV-1 (Ba-L)) was “active at similar concentrations”, the calculated capture ([1]; Example 1 liposomes (DPPC/DPPG/cholesterol)) was 2.6 microliters/micromole lipid and the Encapsulation ([1]; Example 2 liposomes (EPC/PS/cholesterol)) was 1.5 - 2 microliters/micromole EPC. For the same compound, the Superoxide (monocytes; ddCTP 2.2 uM) was 1.21 (.02) nmoles/well, the Superoxide (monocytes; ddCTP 11 uM) was 0.85 (.04) nmoles/well and the Superoxide (monocytes; ddCTP 56 uM) was 0.77 (.04) nmoles/well. The Superoxide (monocytes; ddCTP .0 uM) was 1.19 (.06) nmoles/well, the Superoxide (monocytes; ddCTP .018 uM) was 1.33 (.05) nmoles/well and the Superoxide (monocytes; ddCTP .09 uM) was 1.42 (.10) nmoles/well. The Superoxide (monocytes; ddCTP .45 uM) was 1.33 (.08) nmoles/well.
